Patent US4910225A, “Locally administrable therapeutic composition for inflammatory disease” (Senju Pharmaceutical Co., Ltd., priority 1988, dated 1990)

What was measured:
[1] = tested on: protein increase after paracentesis; assay: Protein increase in aqueous humor after paracentesis; format: in vivo, albino rabbits
Procedure: The solutions of the following formulas were used.
Totally 28 male albino rabbits (4 rabbits×7 groups) with a body weight of about 2 kg werr used. They had been confirmed, before the experiment, to have mydriatic response to 1% atropine for at least 4 hours.
50 μl each of 1% atropine solution was instilled into both eyes of the animals one hour before the 1st paracenthesis, in which approx. 0.2 ml/eye of aqueous humor (primary aqueous humor) was collected. Topical application of 50 μl each of the test drug solutions was conducted 30 min before the paracenthesis. Pupil diameter of each eye was measured with a slide caliper immediately before and 10 min after the paracenthesis. The 2nd paracenthesis was conducted 90 min after the 1st one, in which approx. 0.2 ml/eye of aqueous humor (secondary aqueous humor) was collected.

[2] = tested on: experimental ophthalmitis induced by bovine serum albumin in white rabbits (ophthalmitis I); assay: Anti-inflammatory effect in ophthalmitis I (bovine serum albumin injected into the vitreous), gross severity scores; format: in vivo; details: for Anterior chamber opacity, degree of inhibition relative to physiological saline group / Balbar conjunctival injection, degree of inhibition relative to physiological saline group / Corneal opacity, degree of inhibition relative to physiological saline group / Discharge, degree of inhibition relative to physiological saline group / External + Internal Grand Total Score, degree of inhibition relative to physiological saline group / External Segment Total Score, degree of inhibition relative to physiological saline group / Internal Segment Total Score, degree of inhibition relative to physiological saline group / Iridic injection, degree of inhibition relative to physiological saline group / Morphological change of iris, degree of inhibition relative to physiological saline group / Palpebral conjunctival edema, degree of inhibition relative to physiological saline group / Palpebral conjunctival injection, degree of inhibition relative to physiological saline group / Anterior chamber opacity score (Internal Segment) / Balbar conjunctival injection score (External Segment) / Corneal opacity score (External Segment) / Discharge score (External Segment) / External + Internal Grand Total Score / External Segment Total Score / Internal Segment Total Score / Iridic injection score (Internal Segment) / Morphological change of iris score (Internal Segment) / Palpebral conjunctival edema score (External Segment) / Palpebral conjunctival injection score (External Segment): ophthalmitis I; for Anterior chamber opacity score (Internal Segment) / Balbar conjunctival injection score (External Segment) / Corneal opacity score (External Segment) / Discharge score (External Segment) / External + Internal Grand Total Score / External Segment Total Score / Internal Segment Total Score / Iridic injection score (Internal Segment) / Morphological change of iris score (Internal Segment) / Palpebral conjunctival edema score (External Segment) / Palpebral conjunctival injection score (External Segment): peak inflammatory period of 3 days, mean ± SE
Procedure: Seventeen male white rabbits weighing about 2 kg were used. They were fed with 80 g of Labo RG-RO (Nippon Agricultural Co., Ltd.) daily and had free access to tap water.
After 28 days when ophthalmitis I had nearly recovered, 2.5% BSA solution was administered in a dose of 25 mg/ml/kg into the auricular vein to cause ophthalmitis (ophthalmitis II). The severity of ophthalmitis was rated according to the rating scale^(1) of Yamauchi et al., based on the Draize method in which an increased weight given to the internal segment of the eye. Observation was made with a frequency of once in one or two days during the peak period of inflammation and once in three or four days before and after the peak period for ophthalmitis I and 3, 6, 12 and 24 hours after intravenous injection of BSA for ophthalmitis II.
^(1) Hideyasu Yamauchi, Makoto Ingu, Tadashi Iso and Kozo Uda: Anti-inflammatory effect of fluorometholone ophthalmic solution in experimental uveitis in rabbits, Folia Ophthalmologica Japonica, 24: 969-79 (1973).
Gross observation was made on the day after injection of BSA into the vitreous body and with the animals arranged in the decreasing order of severity of ocular inflammation, grouping was carried out in such a manner that the intensity distribution would be uniform over the groups. Thus, a physiological saline group of 7 animals, a 0.1% Compound [I] instillation group of 4 animals and a 0.5% Compound [I] instillation group of 5 animals were provided. After this grouping procedure, the test drugs and saline were respectively instilled into both eyes of the rabbits, 50 μl per dose, 4 times a day. For induction of ophthalmitis II, each drug was instilled into both eyes, 50 μl per dose, immediately after injection of BSA into the auricular vein and at 1-hour intervals thereafter, for a total of 14 times.

Nc1c(CC(=O)[O-])cccc1C(=O)c1ccc(Br)cc1.O.[Na+] [Compound [I], Sodium 3-(4-bromobenzoyl)-2-aminophenylacetate monohydrate]
Effect on protein increase compared with 0.5% indomethacin ([1]; 0.01% of Compound [I]): equivalent to that of 0.5% indomethacin
Inhibition (protein increase) ([1]; content 0.0001%): 6.3%
Inhibition (protein increase) ([1]; content 0.001%): 26.3%
Inhibition (protein increase) ([1]; content 0.01%): 62.9%
Inhibition (protein increase) ([1]; content 0.1%): 87.8%
Anti-inflammatory effect compared with indomethacin ([1]; miosis and protein increase after paracentesis): stronger anti-inflammatory effect than indomethacin
Inhibitory activity on protein increase after paracentesis ([1]; rabbit, in vivo): strong and dose-related inhibitory activity on protein increase after paracenthesis
Inhibition of ophthalmitis I for the external and the internal segment of the eye ([2]; 0.1% and 0.5%): potent and dose-dependent inhibition for both the external and the internal segment of the eye
Anterior chamber opacity, degree of inhibition relative to physiological saline group ([2]; 0.1%): -20.0%
Balbar conjunctival injection, degree of inhibition relative to physiological saline group ([2]; 0.1%): 30.8%
Corneal opacity, degree of inhibition relative to physiological saline group ([2]; 0.1%): 60.0%
Discharge, degree of inhibition relative to physiological saline group ([2]; 0.1%): 100%
External + Internal Grand Total Score, degree of inhibition relative to physiological saline group ([2]; 0.1%): 41.8%
External Segment Total Score, degree of inhibition relative to physiological saline group ([2]; 0.1%): 50.4%
Internal Segment Total Score, degree of inhibition relative to physiological saline group ([2]; 0.1%): 32.6%
Iridic injection, degree of inhibition relative to physiological saline group ([2]; 0.1%): 57.4%
Morphological change of iris, degree of inhibition relative to physiological saline group ([2]; 0.1%): 34.1%
Palpebral conjunctival edema, degree of inhibition relative to physiological saline group ([2]; 0.1%): 85.7%
Palpebral conjunctival injection, degree of inhibition relative to physiological saline group ([2]; 0.1%): 65.8%
Anterior chamber opacity score (Internal Segment) ([2]; 0.1%): 3.6 ± 0.8
Balbar conjunctival injection score (External Segment) ([2]; 0.1%): 4.5 ± 0.6
Corneal opacity score (External Segment) ([2]; 0.1%): 1.0 ± 0.4
Discharge score (External Segment) ([2]; 0.1%): 0
External + Internal Grand Total Score ([2]; 0.1%): 15.9 ± 1.8
External Segment Total Score ([2]; 0.1%): 6.8 ± 1.0
Internal Segment Total Score ([2]; 0.1%): 9.1 ± 1.0
Iridic injection score (Internal Segment) ([2]; 0.1%): 2.6 ± 0.2
Morphological change of iris score (Internal Segment) ([2]; 0.1%): 2.9 ± 0.4
Palpebral conjunctival edema score (External Segment) ([2]; 0.1%): 0.1 ± 0.1
Palpebral conjunctival injection score (External Segment) ([2]; 0.1%): 1.3 ± 0.2
Anterior chamber opacity, degree of inhibition relative to physiological saline group ([2]; 0.5%): 33.3%
Balbar conjunctival injection, degree of inhibition relative to physiological saline group ([2]; 0.5%): 74.5%
Corneal opacity, degree of inhibition relative to physiological saline group ([2]; 0.5%): 48.0%
Discharge, degree of inhibition relative to physiological saline group ([2]; 0.5%): 100%
External + Internal Grand Total Score, degree of inhibition relative to physiological saline group ([2]; 0.5%): 63.0%
External Segment Total Score, degree of inhibition relative to physiological saline group ([2]; 0.5%): 74.5%
Internal Segment Total Score, degree of inhibition relative to physiological saline group ([2]; 0.5%): 51.1%
Iridic injection, degree of inhibition relative to physiological saline group ([2]; 0.5%): 70.5%
Morphological change of iris, degree of inhibition relative to physiological saline group ([2]; 0.5%): 34.1%
Palpebral conjunctival edema, degree of inhibition relative to physiological saline group ([2]; 0.5%): 100%
Palpebral conjunctival injection, degree of inhibition relative to physiological saline group ([2]; 0.5%): 36.8%
Anterior chamber opacity score (Internal Segment) ([2]; 0.5%): 2.0 ± 0.4
Balbar conjunctival injection score (External Segment) ([2]; 0.5%): 1.6 ± 0.2
Corneal opacity score (External Segment) ([2]; 0.5%): 0.4 ± 0.2
Discharge score (External Segment) ([2]; 0.5%): 0
External + Internal Grand Total Score ([2]; 0.5%): 10.1 ± 1.0
External Segment Total Score ([2]; 0.5%): 3.5 ± 0.4
Internal Segment Total Score ([2]; 0.5%): 6.6 ± 0.8
Iridic injection score (Internal Segment) ([2]; 0.5%): 1.8 ± 0.2
Morphological change of iris score (Internal Segment) ([2]; 0.5%): 2.9 ± 0.4
Palpebral conjunctival edema score (External Segment) ([2]; 0.5%): 0
Palpebral conjunctival injection score (External Segment) ([2]; 0.5%): 1.5 ± 0.3
